According to PMC6105164 (Cancer Chemotherapy and Pharmacology, 2018):
“Also recorded” adds a separate entry of the source.

System: relapsed/refractory solid tumors
Experiment: Exploratory evaluation of efficacy (RECIST)
Assay type: in vivo, human
Conditions: for Number of cycles completed, Median / Number of cycles completed, Range: completed = ≥ 60% of planned treatment
Excerpt: Treatment was immediately terminated at the patient’s request when DLT occurred; the study physician decided that continuation was inappropriate because of AEs; or if the tumor was classified as progressive disease (PD) according to the Response Evaluation Criteria in Solid Tumor (RECIST) Guideline. In cases of DLT, patients were allowed to continue the regimen with dose adjustments upon providing written agreement. At the end of the regimen, patients were allowed to repeat the same regimen if all of the following criteria were met: no DLT occurred; the tumor was not determined as PD; the study physicians agreed; and the patient provided written informed consent. […] Diagnostic imaging using computed tomography, magnetic resonance imaging (MRI), fluorodeoxyglucose-positron emission tomography (PET), and/or bone scintigraphy was performed depending on the tumors and clinical symptoms on day 22 of first and repeated regimens or at discontinuation. Specific tumor markers (e.g., carcinoembryonic antigen for colorectal cancer and prostate-specific antigen for prostate cancer) were measured on day 22 of first and repeated regimens or at discontinuation. Based on the information obtained, the efficacy was scored in accordance with the RECIST guideline.

[1] = 800 mg twice-daily, for one patient days until withdrawal were counted
[2] = 800 mg twice-daily, two patients not evaluated
[3] = patients with KRAS mutations (4 patients)

For `CC(C)=CCC/C(C)=C/CC/C(C)=C/CSc1ccccc1C(=O)O` [Salirasib, S-trans, trans-farnesylthiosalicylic acid], the “Disease control rate (DCR): CR + PR + SD” value (100 mg twice-daily) was 1 (33.3) N (%), the “Objective response rate (ORR): CR + PR” value (100 mg twice-daily) was 0 (0.0) N (%) and the “Progression-free survival, Median” value (100 mg twice-daily) was 22 days. The “Progression-free survival, Range” value (100 mg twice-daily) was 16 to 53 days, the “Response rate: Complete response (CR)” value (100 mg twice-daily) was 0 (0.0) N (%) and the “Response rate: Partial response (PR)” value (100 mg twice-daily) was 0 (0.0) N (%). The “Response rate: Progressive disease (PD)” value (100 mg twice-daily) was 2 (66.7) N (%), the “Number of cycles completed, Median” value (100 mg twice-daily) was 1 and the “Number of cycles completed, Range” value (100 mg twice-daily) was 1–2. The “Disease control rate (DCR): CR + PR + SD” value (200 mg twice-daily) was 3 (100.0) N (%), the “Objective response rate (ORR): CR + PR” value (200 mg twice-daily) was 0 (0.0) N (%) and the “Progression-free survival, Median” value (200 mg twice-daily) was 213 days. For the same molecule, the “Progression-free survival, Range” value (200 mg twice-daily) was 57 to 373 days, the “Response rate: Complete response (CR)” value (200 mg twice-daily) was 0 (0.0) N (%) and the “Response rate: Partial response (PR)” value (200 mg twice-daily) was 0 (0.0) N (%). The “Response rate: Progressive disease (PD)” value (200 mg twice-daily) was 0 (0.0) N (%), the “Number of cycles completed, Median” value (200 mg twice-daily) was 7 and the “Number of cycles completed, Range” value (200 mg twice-daily) was 2–13. For the same molecule, the “Disease control rate (DCR): CR + PR + SD” value (400 mg twice-daily) was 2 (66.7) N (%), the “Objective response rate (ORR): CR + PR” value (400 mg twice-daily) was 0 (0.0) N (%) and the “Progression-free survival, Median” value (400 mg twice-daily) was 56 days. For the same molecule, the “Progression-free survival, Range” value (400 mg twice-daily) was 22 to 91 days, the “Response rate: Complete response (CR)” value (400 mg twice-daily) was 0 (0.0) N (%) and the “Response rate: Partial response (PR)” value (400 mg twice-daily) was 0 (0.0) N (%). The “Response rate: Progressive disease (PD)” value (400 mg twice-daily) was 1 (33.3) N (%), the “Number of cycles completed, Median” value (400 mg twice-daily) was 2 and the “Number of cycles completed, Range” value (400 mg twice-daily) was 1–3. The “Disease control rate (DCR): CR + PR + SD” value (600 mg twice-daily) was 2 (66.7) N (%), the “Objective response rate (ORR): CR + PR” value (600 mg twice-daily) was 0 (0.0) N (%) and the “Progression-free survival, Median” value (600 mg twice-daily) was 135 days. For the same molecule, the “Progression-free survival, Range” value (600 mg twice-daily) was 79 to 319 days, the “Response rate: Complete response (CR)” value (600 mg twice-daily) was 0 (0.0) N (%) and the “Response rate: Partial response (PR)” value (600 mg twice-daily) was 0 (0.0) N (%). For the same molecule, the “Response rate: Progressive disease (PD)” value (600 mg twice-daily) was 1 (33.3) N (%), the “Number of cycles completed, Median” value (600 mg twice-daily) was 5 and the “Number of cycles completed, Range” value (600 mg twice-daily) was 3–11. For the same molecule, the “Number of cycles completed, Median” value (800 mg twice-daily) was 1, the “Number of cycles completed, Range” value (800 mg twice-daily) was 1–11 and the “Progression-free survival, Median” value [1] was 29 days. The “Progression-free survival, Range” value [1] was 22 to 307 days, the “Disease control rate (DCR): CR + PR + SD” value [2] was 1 (16.7) N (%) and the “Objective response rate (ORR): CR + PR” value [2] was 0 (0.0) N (%). For the same molecule, the “Response rate: Complete response (CR)” value [2] was 0 (0.0) N (%), the “Response rate: Partial response (PR)” value [2] was 0 (0.0) N (%) and the “Response rate: Progressive disease (PD)” value [2] was 3 (50.0) N (%). For the same molecule, the “Disease control rate (DCR): CR + PR + SD” value (1000 mg twice-daily) was 1 (33.3) N (%), the “Objective response rate (ORR): CR + PR” value (1000 mg twice-daily) was 0 (0.0) N (%) and the “Progression-free survival, Median” value (1000 mg twice-daily) was 22 days. For the same molecule, the “Progression-free survival, Range” value (1000 mg twice-daily) was 22 to 91 days, the “Response rate: Complete response (CR)” value (1000 mg twice-daily) was 0 (0.0) N (%) and the “Response rate: Partial response (PR)” value (1000 mg twice-daily) was 0 (0.0) N (%). For the same molecule, the “Response rate: Progressive disease (PD)” value (1000 mg twice-daily) was 2 (66.7) N (%), the “Number of cycles completed, Median” value (1000 mg twice-daily) was 1 and the “Number of cycles completed, Range” value (1000 mg twice-daily) was 1–3. The “Disease control rate (DCR): CR + PR + SD” value (Total, all dose groups) was 10 (47.6) N (%), the “Objective response rate (ORR): CR + PR” value (Total, all dose groups) was 0 (0.0) N (%) and the “Progression-free survival, Median” value (Total, all dose groups) was 53 days. For the same molecule, the “Progression-free survival, Range” value (Total, all dose groups) was 16 to 373 days, the “Response rate: Complete response (CR)” value (Total, all dose groups) was 0 (0.0) N (%) and the “Response rate: Partial response (PR)” value (Total, all dose groups) was 0 (0.0) N (%). For the same molecule, the “Response rate: Progressive disease (PD)” value (Total, all dose groups) was 9 (42.9) N (%), the “Number of cycles completed, Median” value (Total, all dose groups) was 2 and the “Number of cycles completed, Range” value (Total, all dose groups) was 1–13. The “complete response (CR) or partial response (PR), in words” value (all patients, during the trial) was “Neither complete response (CR) nor partial response (PR) was found; also recorded: no patients showed CR or PR”, the “patients who repeated the regimen” value (of 21 patients) was 11 patients and the “Progression-free survival, Range” value [3] was 79 to 373 days. For the same molecule, the median progression-free survival [3] was 227 days, the “number of cycles, median” value [3] was 8 cycles and the “number of cycles, range” value [3] was 3–13 cycles.
